Assay results as given in the NIST ThermoML archive (doi:10.1016/j.jct.2015.08.015).

Conditions: Liquid, Ebulliometric method (Recirculating still)

CC=CCC#N [3-pentenenitrile]
Conditions	vapor or sublimation pressure [kPa]
339.24 K	7.588
344.85 K	9.491
353.91 K	13.48
362.45 K	18.32
368.92 K	22.91
375.61 K	28.8
382.01 K	35.37
386.13 K	40.09
388.17 K	42.83
391.42 K	47.08
394.31 K	51.62
398.64 K	57.83
402.51 K	65.49
407.31 K	74.49
409.72 K	80.01
412.88 K	86.78
414.32 K	90.5
417.51 K	97.9
